Test results from US20250107999A1, “INJECTABLE FORMULATION CONTAINING ISOXAZOLINE DERIVATIVE” (LG CHEM, LTD., priority 2022, published 2025).

Key:
[1] = Change in content of active compound of Formula 2 over time according to solvent pH (FIG. 1); format: physicochemical
Procedure: In addition, after dissolving the API in solvents, the change in the content of the active compound of Formula 2 was measured over time.

[2] = system: caspase; assay: Caspase inhibitory activity; format: biochemical
[3] = API stability in solution (solvent of Example 23, HPLC); format: physicochemical; conditions: 10 mg/ml API
Procedure: Therefore, in order to measure the content of the active form in the solution after preparing the injection, 10 mg/ml of API was dissolved using the solvent of Example 23, and the concentration and purity of the active API (Compound of Formula 2), which changed over time, were measured using HPLC until 60 minutes after dissolution.

[4] = Confirmation of API solubility according to solvent pH (24 hours, HPLC); format: physicochemical

Row | conversion of compound of Formula 2 into compound of Formula 3 ([1]; acidic solvent) | conversion of compound of Formula 2 into compound of Formula 3 ([1]; basic solvent with a neutral pH or higher) | Peak Area Active ([3]; 30 min after mixing) | Peak Area Inactive ([3]; 30 min after mixing) [%] | Peak Area Active ([3]; 60 min after mixing) [%] | Peak Area Inactive ([3]; 60 min after mixing) [%] | solubility ([4]; acidic solvents with a pH of 4 or less) | solubility ([4]; basic solvents with a pH of 7.5 or more) | solubility ([4]; weakly acidic solvents with a pH of 6 or more) | Compound | caspase inhibitory activity [2]
1 | hardly produced | rapidly produced | – | – | – | – | – | – | – | CC(C)[C@@]1(C(=O)N[C@H](CC(=O)O)C(=O)CF)CC(c2nccc3ccccc23)=NO1 [compound of Formula 3] | does not show caspase inhibitory activity
2 | – | – | about 95.5% | 4.33 | 94.18 | 5.59 | hardly soluble | well soluble | began to dissolve | CC(C)[C@@]1(C(=O)NC2CC(=O)OC2(O)CF)CC(c2nccc3ccccc23)=NO1 (stereo in doubt) [compound of Formula 1, (R)-N-((2S,3S)-2-(fluoromethyl)-2-hydroxy-5-oxotetrahydrofuran-3-yl)-5-isopropyl-3-(isoquinolin-1-yl)-4,5-dihydroisoxazol-5-carboxamide] | –
3 | – | – | – | – | – | – | – | – | – | CC(C)[C@@]1(C(=O)N[C@@H](CC(=O)O)C(=O)CF)CC(c2nccc3ccccc23)=NO1 [compound of Formula 2] | active form
